ChEMBL document CHEMBL1201862, “PubChem BioAssay data set” (2004)
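All cell lines were grown in 96-well plates and treated with compound for 48 hours. At the GI50, growth is halved.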 The source made the active and inactive calls. Cut-off read from the data, not from the text of the source: active = GI50 up to about 1.1 µM and inactive = higher.

Columns and labels:
Assay in all cases: DTP human tumour cell line panel, 48 h
PC-3 = test system: PC-3
SF-268 = test system: SF-268
RXF 393 = test system: RXF 393
M14 = test system: M14
Malme-3M = test system: Malme-3M
HCT-15 = test system: HCT-15
NCI-H522 = test system: NCI-H522
Hs-578T = test system: Hs-578T
EKVX = test system: EKVX
COLO 205 = test system: COLO 205
SNB-75 = test system: SNB-75
HCC 2998 = test system: HCC 2998
HT-29 = test system: HT-29
ACHN = test system: ACHN
SW-620 = test system: SW-620
SK-MEL-28 = test system: SK-MEL-28
NCI/ADR-RES = test system: NCI/ADR-RES
UACC-62 = test system: UACC-62
NCI-H460 = test system: NCI-H460
SNB-19 = test system: SNB-19
MDA-MB-435 = test system: MDA-MB-435
SF-539 = test system: SF-539
IGROV-1 = test system: IGROV-1
HOP-92 = test system: HOP-92
OVCAR-4 = test system: OVCAR-4
SF-295 = test system: SF-295
RPMI-8226 = test system: RPMI-8226
786-0 = test system: 786-0
NCI-H226 = test system: NCI-H226
TK-10 = test system: TK-10
OVCAR-8 = test system: OVCAR-8
K562 = test system: K562
MCF7 = test system: MCF7
DU-145 = test system: DU-145
A498 = test system: A498
SK-MEL-2 = test system: SK-MEL-2
MOLT-4 = test system: MOLT-4
UACC-257 = test system: UACC-257
HL-60 = test system: HL-60
A549 = test system: A549
MDA-MB-231 = test system: MDA-MB-231
OVCAR-3 = test system: OVCAR-3
T47D = test system: T47D
SN12C = test system: SN12C
KM12 = test system: KM12
CAKI-1 = test system: CAKI-1
LOX IMVI = test system: LOX IMVI
SR = test system: SR
HOP-62 = test system: HOP-62
CCRF-CEM = test system: CCRF-CEM
NCI-H23 = test system: NCI-H23
SK-OV-3 = test system: SK-OV-3
HCT-116 = test system: HCT-116
SK-MEL-5 = test system: SK-MEL-5
U-251 = test system: U-251
UO-31 = test system: UO-31
BT-549 = test system: BT-549
OVCAR-5 = test system: OVCAR-5

CCOC(=O)c1c(N2CCOCC2)[nH]c(=O)c(C(c2c(Cl)cccc2Cl)c2c(O)c(C(=O)OCC)c(N3CCOCC3)[nH]c2=O)c1O
GI50 (PC-3): 15.5 µM (inactive) | GI50 (SF-268): 8.22 µM (inactive) | GI50 (RXF 393): 2.19 µM (inactive) | GI50 (M14): 2.4 µM (inactive) | GI50 (Malme-3M): 2.49 µM (inactive) | GI50 (HCT-15): 4.63 µM | GI50 (NCI-H522): 1.83 µM (inactive) | GI50 (Hs-578T): 4.86 µM (inactive) | GI50 (EKVX): 18.9 µM (inactive) | GI50 (COLO 205): 4.34 µM (inactive) | GI50 (SNB-75): 6.7 µM (inactive) | GI50 (HCC 2998): 19.4 µM (inactive) | GI50 (HT-29): 3.56 µM (inactive) | GI50 (ACHN): 4.54 µM (inactive) | GI50 (SW-620): 1.7 µM (inactive) | GI50 (SK-MEL-28): 1.93 µM (inactive) | GI50 (NCI/ADR-RES): 18 µM (inactive) | GI50 (UACC-62): 6.9 µM (inactive) | GI50 (NCI-H460): 21.4 µM (inactive) | GI50 (SNB-19): 7.45 µM (inactive) | GI50 (MDA-MB-435): 3.48 µM (inactive) | GI50 (SF-539): 5.11 µM (inactive) | GI50 (IGROV-1): 4.09 µM (inactive) | GI50 (HOP-92): 2.09 µM (inactive) | GI50 (OVCAR-4): 9.84 µM (inactive) | GI50 (SF-295): 16 µM (inactive) | GI50 (RPMI-8226): 2.18 µM (inactive) | GI50 (786-0): 2.67 µM (inactive) | GI50 (NCI-H226): 13.8 µM (inactive) | GI50 (TK-10): 4.66 µM (inactive) | GI50 (OVCAR-8): 8.17 µM (inactive) | GI50 (K562): 2.3 µM (inactive) | GI50 (MCF7): 2.47 µM (inactive) | GI50 (DU-145): 12.2 µM (inactive) | GI50 (A498): 8.71 µM (inactive) | GI50 (SK-MEL-2): 4.74 µM (inactive) | GI50 (MOLT-4): 2.07 µM (inactive) | GI50 (UACC-257): 5.58 µM (inactive) | GI50 (HL-60): 1.96 µM (inactive) | GI50 (A549): 18.2 µM (inactive) | GI50 (MDA-MB-231): 12.3 µM (inactive) | GI50 (OVCAR-3): 3.48 µM (inactive) | GI50 (T47D): 4.01 µM (inactive) | GI50 (SN12C): 4.92 µM (inactive) | GI50 (KM12): 16.9 µM (inactive) | GI50 (CAKI-1): 2.31 µM (inactive) | GI50 (LOX IMVI): 2.91 µM (inactive) | GI50 (SR): 3.97 µM (inactive) | GI50 (HOP-62): 16.1 µM (inactive) | GI50 (CCRF-CEM): 1.64 µM (inactive) | GI50 (NCI-H23): 7.19 µM (inactive) | GI50 (SK-OV-3): 11.2 µM (inactive) | GI50 (HCT-116): 4.39 µM (inactive) | GI50 (SK-MEL-5): 4.55 µM (inactive) | GI50 (U-251): 4.8 µM (inactive) | GI50 (UO-31): 2.47 µM (inactive) | GI50 (BT-549): 7.76 µM (inactive) | GI50 (OVCAR-5): 14.4 µM (inactive)
